Test results published in publication PMC8536627, “Hydrolytic stability of anticancer drugs and one metabolite in the aquatic environment” (Environmental Science and Pollution Research International, 2021).
“And” between values parts separate entries of the source, which are not always exact repeats. Equal entries are not always repeated. “Also recorded” adds a separate entry of the source. Where two headings read alike, the source gives them in different places. Values belong to the molecule of their own block, whether it stands above or below them.

How the values were obtained:
[1] = HPLC water with 4 % DMSO, ref Negreira et al. ([2013a]), cited from earlier work
physchem [2] = details: for Hydrolytic stability in the preliminary test: pH 4, 7 and 9, 50 °C; for Hydrolytic stability in the preliminary test / Degradation level in the preliminary test: 5 days; for Degradation level in the preliminary test: dark
Experimental: The incubation was performed in the dark, in order to avoid the influence of the photolysis on degradation of the analytes. The water used for the preparation of buffers was autoclaved, all glassware was clean, flushed with methanol, and dried in high temperature. Samples were closed in glass tubes with a sealed cap. The air from above the solution was removed by a nitrogen stream just before capping. In the preliminary test, solutions of single analytes were prepared in each tested pH: 4, 7, and 9, which is required by the OECD guidelines. There was also a blank sample prepared for each pH. Samples in the preliminary test were prepared in two parallel replicates. Moreover, the complete preliminary test was repeated twice. The preliminary test was performed at 50 °C for 5 days. […] In the case of the extended tests, 7 measuring points were provided during the time of the test. Each measuring point was performed in two parallel replicates. […] The test was conducted for 30 days or to 90 % elimination of a compound. Obtained results were used to determine the hydrolysis rate constant (k) using equation: 1 lnCt/C0=kt
The HPLC-UV/Vis technique was applied to determine the level of hydrolytic degradation of the analytes. In the preliminary test, the control and blank samples were analyzed at the beginning and the end of the test. […] In the extended test, the samples collected in the time intervals were analyzed, and peak areas were compared to those obtained at the beginning of the test. This was used to determine the kinetic of this hydrolysis process by using the Equation 1. In general, each analyte was analyzed by a simple HPLC method with UV/Vis detection. Gemini C18 (Phenomenex, USA), 5 μm, 110 Å, 150 mm × 4.6 mm chromatographic column was applied for each method and three different mobile phases were used (water or 0.1 % HCOOH) mixed with the acetonitrile. The conditions applied during the LC-MS analysis with an ion trap detector for the qualitative analysis of the samples collected after the extended tests at 20 and 70 °C are presented in the Table S2.

[3] = design: method as in Białk-Bielińska et al. [2017]; details: ref Białk-Bielińska et al. [2017]; cited from earlier work
[4] = design: method as in Negreira et al. ([2013b]); details: acidification of samples, organic modifier such as 50 % methanol or DMSO, previously tested conditions; ref Negreira et al. ([2013b]); cited from earlier work
physchem [5] = assay type: physicochemical; details: for half-life: buffer, read-out: t½, extrapolated half-life (converted)
Experimental: By obtaining at least two rate constants for two different temperatures, it is possible to calculate the rate constants and, in consequence, half-lives at other temperatures, according to the Arrhenius equation: 3 k=A×e^−E/R×Torlnk=−E/R×T+lnA
Therefore, these equations were applied to extrapolate the obtained results and calculate the rate constants and half-lives of unstable anticancer drugs in more environmentally relevant temperatures (4, 10, or 15 °C), which are typical to natural waters.
Additionally, these observations confirm that CP is much more vulnerable for hydrolysis than IF, which is interesting how two isomers (like CP and IF) may differently undergo hydrolysis process. […] If the conclusions were drawn only based on the results from the preliminary experiments (incubation at 50 °C for 5 days), it would be assumed that both compounds, especially CP, are very unstable. […] Moreover, using Equation 3, it was possible to extrapolate the results to determine the rate constants and half-lives at the temperatures 4, 10, and 15 °C, which are ordinary for environmental waters (Table 2).

[6] = design: method as in Muñoz et al. ([1996]); details: 20 °C, pH 5; ref Muñoz et al. ([1996]); cited from earlier work
physchem [7] = assay type: physicochemical; details: for half-life: buffer
Experimental: Moreover, the complete preliminary test was repeated twice. […] Each measuring point was performed in two parallel replicates.
where t, time; ct, c0, concentration of the analyte at a time (0 means the beginning of the test); k, rate constant.
Based on this, the t1/2 was determined by using the equation: 2 t1/2=ln2/k
where t1/2, half-life of the analyte; k, rate constant.
The degradation was monitored for 30 days or until 90 % of a compound was degraded. Based on the obtained results (Fig. 4) the constant rates (k) and half-lives (t1/2) have been calculated (Table 1).
After determining the hydrolysis rate constants it was possible to calculate activation energy (Ea) of this process at each pH, either from plotting ln k from T^−1 (Figure 5) when there were three k values obtained for each compound and pH (CP at pH 4, 7, and 9 as well as IF at pH 4) or from the following equation (for IF at pH 7 and 9, where only two k values were obtained) (Table 1): 4 E=Rlnk2−lnk1/1/T1¯−1/T2
where R, gas constant (8.314 J/mol × K); k1, k2, rate constants for different temperatures; T, absolute temperature (K).

[8] = milli-Q water, room temperature, natural pH; ref Franquet-Griell et al. [2017]; cited from earlier work
[9] = ref Gómez-Canela et al. [2015], cited from earlier work

half-life (physchem [2]; aqueous buffer): ≥ 365 days
Hydrolytic stability in the preliminary test (physchem [2]): hydrolytically stable
Degradation level in the preliminary test (physchem [2]; pH 4, 50 °C): 7%
Structure (SMILES): CN(Cc1nc2c(N)nc(N)nc2nc1O)c1ccc(C(=O)N[C@@H](CCC(=O)O)C(=O)O)cc1 [7-OH-MTX, 7-hydroxymethotrexate]
Remained intact ([1]; 4 °C, 24 h): 86%
Concentration decreased to ([1]; 4 °C, after 9 days): around 50%
Stability in 24 h test ([1]; 15 °C, 24 h): none of the 7-OH-MTX left in the solution
Degradation level / loss ([1]; 25 °C, 24 h incubation): full degradation
Hydrolytic stability under ecotoxicological test conditions [3]: hydrolytically stable
Photolytic stability under ecotoxicological test conditions [3]: susceptible to photolysis
Stability after acidification and with organic modifier [4]: stable

Structure (SMILES): O=P1(NCCCl)OCCCN1CCCl (stereo not drawn) [IF, ifosfamide]
k, extrapolated rate constant (physchem [5]; 4 °C, pH 4): 8.3e-05 h⁻¹
k, extrapolated rate constant (physchem [5]; 4 °C, pH 7): 3e-06 h⁻¹
k, extrapolated rate constant (physchem [5]; 4 °C, pH 9): 4e-06 h⁻¹
k, extrapolated rate constant (physchem [5]; 10 °C, pH 4): 0.000107 h⁻¹
k, extrapolated rate constant (physchem [5]; 10 °C, pH 7): 5e-06 h⁻¹
k, extrapolated rate constant (physchem [5]; 10 °C, pH 9): 6e-06 h⁻¹
k, extrapolated rate constant (physchem [5]; 15 °C, pH 4): 0.000199 h⁻¹
k, extrapolated rate constant (physchem [5]; 15 °C, pH 7): 1.1e-05 h⁻¹
k, extrapolated rate constant (physchem [5]; 15 °C, pH 9): 1.6e-05 h⁻¹
half-life (physchem [5]; pH 4, 4 °C, pH 4): 349 days
half-life (physchem [5]; pH 4, 10 °C, pH 4): 271 days
half-life (physchem [5]; pH 4, 15 °C, pH 4): 146 days
half-life (physchem [5]; pH 7, 10 °C, pH 7): 6360 days
half-life (physchem [5]; pH 7, 15 °C, pH 7): 2580 days
half-life (physchem [5]; pH 9, 4 °C, pH 9): 6510 days
half-life (physchem [5]; pH 9, 10 °C, pH 9): 4520 days
half-life (physchem [5]; pH 9, 15 °C, pH 9): 1860 days
Degradation level in the preliminary test (physchem [2]; pH 7, 50 °C): 22.3%
Degradation level in the preliminary test (physchem [2]; pH 9, 50 °C): 27.5%
half-life [6]: around 620 days
Degradation in 30 days (physchem [7]; 20 °C, pH 7): no degradation occurred; also recorded: no changes in the initial concentration; also recorded: completely stable
Degradation in 30 days (physchem [7]; 20 °C, pH 9): no degradation occurred; also recorded: no changes in the initial concentration; also recorded: completely stable
k, hydrolysis rate constant (physchem [7]; 20 °C, pH 4): 0.00038 h⁻¹
k, hydrolysis rate constant (physchem [7]; 50 °C, pH 4): 0.008 h⁻¹
k, hydrolysis rate constant (physchem [7]; 50 °C, pH 7): 0.0029 h⁻¹
k, hydrolysis rate constant (physchem [7]; 50 °C, pH 9): 0.0036 h⁻¹
k, hydrolysis rate constant (physchem [7]; 70 °C, pH 4): 0.059 h⁻¹
k, hydrolysis rate constant (physchem [7]; 70 °C, pH 7): 0.041 h⁻¹
k, hydrolysis rate constant (physchem [7]; 70 °C, pH 9): 0.049 h⁻¹
half-life (physchem [7]; pH 4, 20 °C, pH 4, read-out: Half-life (converted)): ~80 days
half-life (physchem [7]; pH 4, 20 °C, pH 4, read-out: t½, half-life (converted)): 76.8 days
half-life (physchem [7]; pH 4, 50 °C, pH 4, read-out: t½, half-life (converted)): 3.6 days
half-life (physchem [7]; pH 4, 70 °C, pH 4, read-out: t½, half-life (converted)): 0.488 days
half-life (physchem [7]; pH 7, 50 °C, pH 7, read-out: t½, half-life (converted)): 10.1 days
half-life (physchem [7]; pH 7, 70 °C, pH 7, read-out: t½, half-life (converted)): 0.704 days
half-life (physchem [7]; pH 9, 50 °C, pH 9, read-out: t½, half-life (converted)): 7.99 days
half-life (physchem [7]; pH 9, 70 °C, pH 9, read-out: t½, half-life (converted)): 0.583 days
Ea, activation energy of hydrolysis (physchem [7]; pH 4): 20.1 kcal/mol
Ea, activation energy of hydrolysis (physchem [7]; pH 7): 29.21 kcal/mol
Ea, activation energy of hydrolysis (physchem [7]; pH 9): 29.21 kcal/mol and 28.7 kcal/mol

Structure (SMILES): Cc1ccc(NC(=O)c2ccc(CN3CCN(C)CC3)cc2)cc1Nc1nccc(-c2cccnc2)n1 [IMT, imatinib]
Hydrolytic stability in the preliminary test (physchem [2]): hydrolytically stable

Structure (SMILES): CCCCCOC(=O)Nc1nc(=O)n([C@@H]2O[C@H](C)[C@@H](O)[C@H]2O)cc1F [capecitabine]
Hydrolytic stability in milli-Q water [8]: stable

Structure (SMILES): O=C(O)CCCc1ccc(N(CCCl)CCCl)cc1 [chlorambucil]
Hydrolytic stability in milli-Q water [8]: highly unstable
Remaining part degraded within 24 h ([9]; hard water, initial concentration 10 ng μL^−1, within 24 h): 19%
Transformed at the beginning of the test ([9]; hard water, initial concentration 10 ng μL^−1): 81%
Transformation in hard water ([9]; initial concentration 2 ng μL^−1): instant and complete transformation

Structure (SMILES): COc1cccc2c1C(=O)c1c(O)c3c(c(O)c1C2=O)C[C@@](O)(C(C)=O)C[C@@H]3O[C@H]1C[C@H](N)[C@H](O)[C@H](C)O1 [daunorubicin]
Hydrolytic stability in milli-Q water [8]: highly unstable

Structure (SMILES): COc1cccc2c1C(=O)c1c(O)c3c(c(O)c1C2=O)C[C@@](O)(C(=O)CO)C[C@@H]3O[C@H]1C[C@H](N)[C@H](O)[C@H](C)O1 [doxorubicin]
Hydrolytic stability in milli-Q water [8]: highly unstable

Structure (SMILES): Nc1ccn([C@@H]2O[C@H](CO)[C@@H](O)C2(F)F)c(=O)n1 [gemcitabine]
Hydrolytic stability in milli-Q water [8]: stable

Structure (SMILES): CCc1c2c(nc3ccc(OC(=O)N4CCC(N5CCCCC5)CC4)cc13)-c1cc3c(c(=O)n1C2)COC(=O)[C@]3(O)CC [irinotecan]
Hydrolytic stability in milli-Q water [8]: highly unstable

Structure (SMILES): N[C@@H](Cc1ccc(N(CCCl)CCCl)cc1)C(=O)O [melphalan]
Hydrolytic stability in milli-Q water [8]: highly unstable

Structure (SMILES): COc1c(C)c2c(c(O)c1C/C=C(\C)CCC(=O)O)C(=O)OC2 [mycophenolic acid]
Hydrolytic stability in milli-Q water [8]: stable

Structure (SMILES): CC[C@]1(O)C[C@H]2CN(CCc3c([nH]c4ccccc34)[C@@](C(=O)OC)(c3cc4c(cc3OC)N(C=O)[C@H]3[C@@](O)(C(=O)OC)[C@H](OC(C)=O)[C@]5(CC)C=CCN6CC[C@]43[C@@H]65)C2)C1 [vincristine]
Hydrolytic stability in milli-Q water [8]: highly unstable
